Test results: US9974726B2, “Gentle cleansing compositions with makeup removal properties” (L'OREAL, priority 2016, dated 2018)

Tested on: skin of an arm
Test: Hydration Test (corneometer)
Type: in vivo
Conditions: n=10
Procedure: Each of the compositions in the table below were individually applied to the skin of an arm (n=10) and then removed with a moist cotton pad. A corneometer was used to take initial measurements, and subsequent measurements at 1, 2, and 6 hour time points.

In the case of `CCCCCCCCCCCCOS(=O)(=O)[O-].[Na+]` [5% sodium lauryl sulfate, sodium lauryl sulfate], the “corneometer measurement, 1 hours” value (1 hour after application and removal with moist cotton pad, * = statistically significant) is reported as 34.2, the “corneometer measurement, 2 hours” value (2 hours after application and removal, * = statistically significant) is reported as 33.5 and the “corneometer measurement, 6 hours” value (6 hours after application and removal, * = statistically significant) is reported as 32.4. For the same molecule, the “corneometer measurement, 0 hours” value (initial measurement) was 30.7.
